The target in data set [1] is T1, Mitogen-activated protein kinase 14 (Homo sapiens, UniProt Q16539). In words: Inhibition of human recombinant untagged p38alpha expressed in Escherichia coli at 10 uM using ATF2 as substrate incubated for 60 mins in presence of [33P]-ATP by radiometric assay relative to control.
In another data set the target is T2, TGF-beta receptor type-1 (Homo sapiens, UniProt P36897).
T2 sequence (P36897 whole entry): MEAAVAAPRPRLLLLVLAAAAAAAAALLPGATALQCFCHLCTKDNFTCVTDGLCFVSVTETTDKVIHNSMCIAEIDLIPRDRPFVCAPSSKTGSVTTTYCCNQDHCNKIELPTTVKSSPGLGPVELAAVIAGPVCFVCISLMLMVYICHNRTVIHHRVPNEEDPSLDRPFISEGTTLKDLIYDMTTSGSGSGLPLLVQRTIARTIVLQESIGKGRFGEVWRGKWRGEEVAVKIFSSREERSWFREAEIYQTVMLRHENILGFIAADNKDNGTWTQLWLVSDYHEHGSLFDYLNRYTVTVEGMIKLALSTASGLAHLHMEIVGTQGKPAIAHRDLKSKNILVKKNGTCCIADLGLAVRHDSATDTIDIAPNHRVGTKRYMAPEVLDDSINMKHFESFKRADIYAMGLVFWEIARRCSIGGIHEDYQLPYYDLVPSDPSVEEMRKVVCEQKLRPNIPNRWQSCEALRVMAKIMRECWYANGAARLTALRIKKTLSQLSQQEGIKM
The experiment in a line: Inhibition of human recombinant GST-tagged ALK5 expressed in Sf9 insect cells using casein as substrate incubated for 60 mins in presence of [33P]-ATP by radiometric assay.

The target of data set [2] is T1, Mitogen-activated protein kinase 14. The experiment in a line: Inhibition of human recombinant untagged p38alpha expressed in Escherichia coli using ATF2 as substrate incubated for 60 mins in presence of [33P]-ATP by radiometric assay.
Data set [3] is described as follows: Cytotoxicity against human LX2 cells assessed as reduction in cell viability at 4 to 100 uM incubated for 3 hrs by MTT assay. The data set is classed as cell-based.
Data set [4] addresses T3, TGF-beta receptor type-1 (Homo sapiens) (UniProt P36897).
T3 sequence (whole entry): T2 sequence (P36897 whole entry)
In words: Inhibition of human recombinant GST-tagged ALK5 expressed in Sf9 insect cells at 10 uM using casein as substrate incubated for 60 mins in presence of [33P]-ATP by radiometric assay relative to control.

These results are taken from ChEMBL document CHEMBL4359846, “Design, synthesis, and antifibrosis evaluation of 4-(benzo-[c][1,2,5]thiadiazol-5-yl)-3(5)-(6-methyl- pyridin-2-yl)pyrazole and 3(5)-(6-methylpyridin- 2-yl)-4-(thieno-[3,2,-c]pyridin-2-yl)pyrazole derivatives” (Eur J Med Chem, 2019).

Bounds are passed on as bounds.

T1 sequence (Q16539 whole entry): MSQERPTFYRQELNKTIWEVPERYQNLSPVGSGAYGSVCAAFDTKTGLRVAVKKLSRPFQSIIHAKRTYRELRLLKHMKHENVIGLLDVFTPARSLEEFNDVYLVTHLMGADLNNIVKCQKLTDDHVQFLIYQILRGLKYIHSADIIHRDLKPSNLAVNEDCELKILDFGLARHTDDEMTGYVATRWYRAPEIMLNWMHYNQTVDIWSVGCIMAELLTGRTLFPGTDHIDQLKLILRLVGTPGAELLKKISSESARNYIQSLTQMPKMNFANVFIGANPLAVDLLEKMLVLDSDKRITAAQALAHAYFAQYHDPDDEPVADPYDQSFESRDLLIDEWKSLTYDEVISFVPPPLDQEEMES

As for `Cc1cccc(-c2nn(CC(=S)Nc3cccc(F)c3)cc2-c2ccc3nsnc3c2)n1`, the inhibition in data set [1] fell in the range of 0 to 66%. The figures for the IC50 (at TGF-beta receptor type-1; in data set [2]) were 30 nM and 7040 nM, respectively. Besides, in data set [3], the Activity entry was “Toxic”.

Turning to `Cc1cccc(-c2c(-c3cc4cnccc4s3)cnn2CC(=O)Nc2cccc(C#N)c2)n1`, the inhibition was 46 to 91% in data set [4] and 0 to 66% in data set [1].

As for `Cc1cccc(-c2nn(CC(=O)Nc3ccccc3)cc2-c2cc3cnccc3s2)n1`, the inhibition in data set [1] was 0 to 66%. In addition, the IC50 on TGF-beta receptor type-1 was 39 nM; in data set [2], 8120 nM. The Activity result in data set [3] is reported as “Non-Toxic”.

For `Cc1cccc(-c2nn(CC(=S)Nc3ccccc3F)cc2-c2ccc3nsnc3c2)n1`, in data set [1], the inhibition fell in the range of 0 to 66%. For the same molecule, the IC50 at TGF-beta receptor type-1 amounted to 55 nM; in data set [2], 3800 nM.

For the molecule `Cc1cccc(-c2c(-c3ccc4nsnc4c3)cnn2CC(=O)Nc2cccc(F)c2)n1`, the inhibition was in the range of 52 to 98% in data set [4] and 0 to 66% in data set [1].

Take `Cc1cccc(-c2c(-c3cc4cnccc4s3)cnn2CC(=O)Nc2cccc(F)c2)n1`: the inhibition was 46 to 91% in data set [4] and 0 to 66% in data set [1].

In the case of `Cc1cccc(-c2nn(CC(=O)Nc3cccc(F)c3)cc2-c2ccc3nsnc3c2)n1`, the inhibition in data set [4] lay in the range of 98 to 99%; in data set [1], 0 to 66%. For the same molecule, the figures for the IC50 (at TGF-beta receptor type-1; in data set [2]) were 87 nM and greater than 10000 nM, respectively.

`Cc1cccc(-c2c(-c3ccc4nsnc4c3)cnn2CC(=O)Nc2ccccc2F)n1`: the figures for the inhibition in data set [4] and in data set [1] were 52 to 98% and 0 to 66%, respectively.

Turning to `Cc1cccc(-c2c(-c3ccc4nsnc4c3)cnn2CC(=O)Nc2cccc(C#N)c2)n1`, the inhibition in data set [4] lay within 52 to 98%; in data set [1] it was 0 to 66%.

Regarding `Cc1cccc(-c2nn(CC(=S)Nc3cccc(F)c3)cc2-c2cc3cnccc3s2)n1`, the inhibition in data set [1] is 0 to 66%. Moreover, the figures for the 50% inhibitory concentration (IC50) (on TGF-beta receptor type-1; in data set [2]) were 125 nM and greater than 10000 nM, respectively.

For the molecule `Cc1cccc(-c2c(-c3cc4cnccc4s3)cnn2CC(=O)Nc2ccccc2F)n1`, the inhibition in data set [4] is 46 to 91%; in data set [1], 0 to 66%.

For `Cc1cccc(-c2nn(CC(=S)Nc3cccc(C#N)c3)cc2-c2cc3cnccc3s2)n1`, the inhibition in data set [1] is 0 to 66%. Moreover, the IC50 turned out to be 78 nM on TGF-beta receptor type-1 and 9460 nM in data set [2].

With `Cc1cccc(-c2nn(CC(=O)Nc3cccc(F)c3)cc2-c2cc3cnccc3s2)n1`, the inhibition lay in the range of 98 to 100% in data set [4] and 0 to 66% in data set [1]. Also, the figures for the IC50 (at TGF-beta receptor type-1; in data set [2]) were 119 nM and greater than 10000 nM, respectively.

On to `Cc1cccc(-c2nn(CC(=O)Nc3cccc(C#N)c3)cc2-c2cc3cnccc3s2)n1`, for which the inhibition was in the range of 98 to 100% in data set [4] and 0 to 66% in data set [1]. The values for the IC50 (on TGF-beta receptor type-1; in data set [2]) were 230 nM and greater than 10000 nM, respectively.

Take `Cc1cccc(-c2c(-c3cc4cnccc4s3)cnn2CC(=O)Nc2ccccc2)n1`: the inhibition lay in the range of 46 to 91% in data set [4] and 0 to 66% in data set [1].

With `Cc1cccc(-c2c(-c3ccc4nsnc4c3)cnn2CC(=O)Nc2ccccc2)n1`, the inhibition in data set [4] fell in the range of 52 to 98%; in data set [1] it was 0 to 66%.

Turning to `Cc1cccc(-c2nn(CC(=O)Nc3cccc(C#N)c3)cc2-c2ccc3nsnc3c2)n1`, the figures for the inhibition in data set [4] and in data set [1] were 98 to 99% and 0 to 66%, respectively. The IC50 on TGF-beta receptor type-1 was 165 nM; in data set [2], greater than 10000 nM.

For the molecule `Cc1cccc(-c2nn(CC(=O)Nc3ccccc3F)cc2-c2ccc3nsnc3c2)n1`, the values for the inhibition in data set [4] and in data set [1] were 98 to 99% and 0 to 66%, respectively. Besides, the IC50 on TGF-beta receptor type-1 was 168 nM; in data set [2] it was greater than 10000 nM.

For `Cc1cccc(-c2nn(CC(=S)Nc3ccccc3)cc2-c2ccc3nsnc3c2)n1`, in data set [1], the inhibition fell in the range of 0 to 66%. Further, the results for the IC50 (on TGF-beta receptor type-1; in data set [2]) were 42 nM and 5800 nM, respectively.

Regarding `Cc1cccc(-c2nn(CC(=O)Nc3ccccc3)cc2-c2ccc3nsnc3c2)n1`, the inhibition in data set [4] lay within 98 to 99%; in data set [1], 0 to 66%. Also, the IC50 at TGF-beta receptor type-1 was 30 nM; in data set [2], greater than 10000 nM.

`Cc1cccc(-c2nn(CC(=O)Nc3ccccc3F)cc2-c2cc3cnccc3s2)n1`: the inhibition in data set [4] lay in the range of 98 to 100%; in data set [1] it was 0 to 66%. The results for the IC50 (at TGF-beta receptor type-1; in data set [2]) were 312 nM and greater than 10000 nM, respectively.

Take `Cc1cccc(-c2nn(CC(=S)Nc3cccc(C#N)c3)cc2-c2ccc3nsnc3c2)n1`: the inhibition in data set [1] was in the range of 0 to 66%. For the same molecule, the figures for the IC50 (at TGF-beta receptor type-1; in data set [2]) were 116 nM and greater than 10000 nM, respectively.
